According to PMC5099976 (ACS chemical biology, 2016):

Assays:
[1] = biological target: A156T NS3/4A protease variant (Hepatitis C virus genotype 1a, UniProt P27958, A1182T/C1073S/C1078L/C1185S/I1043Q/I1044E/I1098T/L1039E/L1040E/L1047Q/N1200S/T1100M/T1173A/V1687N); assay type: binding; settings: binding A156T protease; ITC at 25 °C
[2] = system: A156T NS3/4A protease variant; assay type: binding, Hepatitis C Virus; settings: A156T relative to WT; Table S4
[3] = biological target: WT genotype 1a NS3/4A protease (Hepatitis C virus genotype 1a, UniProt P27958, C1073S/C1078L/C1185S/I1043Q/I1044E/I1098T/L1039E/L1040E/L1047Q/N1200S/T1100M/T1173A); assay: Isothermal titration calorimetry, WT protease; assay type: binding; settings: for Ki: WT protease, Table S4
[4] = binding WT protease, ITC at 25 °C

Structure (SMILES)	enthalpy of binding [1] [kcal/mol]	enthalpic change due to A156T mutation [2] [kcal/mol]	entropic loss due to A156T mutation [2] [kcal/mol]	Ki [3] [nM]	Ki ([3]; listed as P1–P3) [nM]	enthalpy of binding [3, 4] [kcal/mol]	entropic contribution to binding (−TΔS) [3, 4] [kcal/mol]
CCc1nc2ccc(OC)cc2nc1O[C@@H]1C[C@H]2C(=O)N[C@]3(C(=O)NS(=O)(=O)C4CC4)C[C@H]3/C=C\CCCCC[C@H](NC(=O)OC(C)(C)C)C(=O)N2C1 [5172-mcP1P3]	-6.3	-0.5	3.3	1.96	2	-5.8	-6.0
C=C[C@@H]1C[C@]1(NC(=O)[C@@H]1C[C@@H]2CN1C(=O)[C@H](C(C)(C)C)NC(=O)O[C@@H]1C[C@H]1CCCCCc1nc3ccc(OC)cc3nc1O2)C(=O)NS(=O)(=O)C1CC1 [MK-5172, reference compound]		2.7	2.2				
